Reference: patent US20230346831A1, “METHODS FOR TREATING […] USING LOW DOSE CARBON MONOXIDE” (priority 2020, published 2023)
Where “and” joins values, the source holds several entries; their conditions need not be identical. Equal values may be shown once.

System: MCF7/TGL cells
Assay: metabolomic assay (polar metabolite profiling, mass spectrometry)
Type: cell-based, human
Description: Extraction and analysis were performed with the same parameters as the method disclosed in FIG. 7.
7 × 10^6 cells were seeded in 10-cm cell culture plates with DMEM containing 10% FBS, 0.2 mM L-glutamine and 1% penicillin/streptomycin. Additionally, MCF7/TGL/pQ was cultured in media containing 0.5 µgml^-1 puromycin and 25 mM HEPES. After 16 hours of incubation, metabolites were extracted from the cells using 80% methanol. The remaining steps were carried out by Weill Cornell Medicine Proteomics and Metabolomics Core Facility according to M. D. Goncalves et al., Proc Natl Acad Sci USA 115, E743-E752 (2018). All data analyses were done using MetaboAnalyst 4.0 (www.metaboanalyst.ca/).
To investigate whether 250 ppm CO mimics hypoxia, the HiF1α protein levels were examined in CO treated MCF7/TGL and MDA-MB-231/TGL cells. […] To determine whether 250 ppm CO affects metabolism, polar metabolites were profiled using two breast cancer cell lines, MCF7/TGL and MDA-MB-231/TGL (FIGS. 7-9).

[1] = MCF7/TGL cells, 250 ppm CO, 16 hours

[C-]#[O+] [CO, Carbon monoxide]
Peak Height Cytosine (HMDB00630, MCF7/TGL cells treated with CO, replicates CO 1-3): 153,235 and 158,066 and 214,404
Peak Height L-Glutamine (HMDB00641, MCF7/TGL cells treated with CO, replicates CO 1-3): 2,010,884,000 and 2,067,120,000 and 2,186,859,000
Peak Height D-Fructose (HMDB00660, MCF7/TGL cells treated with CO, replicates CO 1-3): 2,161,466 and 2,426,370 and 4,390,968
Peak Height Indolelactic acid (HMDB00671, MCF7/TGL cells treated with CO, replicates CO 1-3): 168,415 and 166,030 and 323,966
Peak Height Indoxyl sulfate (HMDB00682, MCF7/TGL cells treated with CO, replicates CO 1-3): 31,554 and 19,025 and 38,019
Peak Height L-Kynurenine (HMDB00684, MCF7/TGL cells treated with CO, replicates CO 1-3): 186,534 and 218,684 and 386,445
Peak Height L-Leucine (HMDB00687, MCF7/TGL cells treated with CO, replicates CO 1-3): 319,755,000 and 339,183,100 and 446,258,700
Peak Height L-Methionine (HMDB00696, MCF7/TGL cells treated with CO, replicates CO 1-3): 110,122,300 and 114,069,500 and 202,567,100
Peak Height Hexanoylcarnirine (HMDB00705, MCF7/TGL cells treated with CO, replicates CO 1-3): 309,788 and 384,626 and 554,943
Peak Height Hippuric acid (HMDB00714, MCF7/TGL cells treated with CO, replicates CO 1-3): 41,839 and 33,037 and 50,895
Peak Height Kynurenic acid (HMDB00715, MCF7/TGL cells treated with CO, replicates CO 1-3): 57,830 and 46,636 and 67,981
Peak Height Malic acid (HMDB00744, MCF7/TGL cells treated with CO, replicates CO 1-3): 118,667,000 and 141,604,200 and 190,900,500
Peak Height N-Acetyl-L-alanine (HMDB00766, MCF7/TGL cells treated with CO, replicates CO 1-3): 3,050,982 and 3,282,590 and 5,343,814
Peak Height Phenyllactic acid (HMDB00779, MCF7/TGL cells treated with CO, replicates CO 1-3): 375,745 and 377,557 and 505,569
Peak Height 3-Phosphoglyceric acid (HMDB00807, MCF7/TGL cells treated with CO, replicates CO 1-3): 830,372 and 1,313,918 and 2,225,910
Peak Height N-Acetyl-L-aspartic acid (HMDB00812, MCF7/TGL cells treated with CO, replicates CO 1-3): 107,096,600 and 121,628,700 and 146,462,300
Peak Height Phenylacetylglycine (HMDB00821, MCF7/TGL cells treated with CO, replicates CO 1-3): 1,455,001 and 1,300,695 and 2,222,377
Peak Height Propionylcarnitine (HMDB00824, MCF7/TGL cells treated with CO, replicates CO 1-3): 88,247,270 and 88,089,220 and 114,107,300
Peak Height Ureidosuccinic acid (HMDB00828, MCF7/TGL cells treated with CO, replicates CO 1-3): 967,259 and 2,115,336 and 2,977,458
Peak Height L-Valine (HMDB00883, MCF7/TGL cells treated with CO, replicates CO 1-3): 166,887,800 and 164,029,200 and 219,042,800
Peak Height Acetylcholine (HMDB00895, MCF7/TGL cells treated with CO, replicates CO 1-3): 79,843,420 and 75,982,720 and 87,382,500
Peak Height NAD (HMDB00902, MCF7/TGL cells treated with CO, replicates CO 1-3): 6,156,942 and 7,187,370 and 12,756,100
Peak Height Citrulline (HMDB00904, MCF7/TGL cells treated with CO, replicates CO 1-3): 9,044,262 and 10,234,370 and 14,264,050
Peak Height L-Tryptophan (HMDB00929, MCF7/TGL cells treated with CO, replicates CO 1-3): 30,996,070 and 34,786,840 and 68,643,900
Peak Height Uridine diphosphate glucuronic acid (HMDB00935, MCF7/TGL cells treated with CO, replicates CO 1-3): 726,138 and 548,546 and 770,082
Peak Height S-Adenosylhomocysteine (HMDB00939, MCF7/TGL cells treated with CO, replicates CO 1-3): 56,652 and 145,088 and 413,677
Peak Height Threonic acid (HMDB00943, MCF7/TGL cells treated with CO, replicates CO 1-3): 76,882,710 and 94,196,330 and 129,619,900
Peak Height dGDP (HMDB00960, MCF7/TGL cells treated with CO, replicates CO 1-3): 686,954 and 539,654 and 784,042
Peak Height Hypotaurine (HMDB00965, MCF7/TGL cells treated with CO, replicates CO 1-3): 4,796,295 and 5,519,371 and 5,943,089
Peak Height Adenosine phosphosulfate (HMDB01003, MCF7/TGL cells treated with CO, replicates CO 1-3): 14,981 and 16,338
Peak Height Deoxyribose 5-phosphate (HMDB01031, MCF7/TGL cells treated with CO, replicates CO 1-3): 19,019 and 34,976 and 30,540
Peak Height S-Lactoylglutathione (HMDB01066, MCF7/TGL cells treated with CO, replicates CO 1-3): 397,298 and 293,636 and 484,692
Peak Height D-Sedoheptulose 7-phosphate (HMDB01068, MCF7/TGL cells treated with CO, replicates CO 1-3): 151,546 and 165,071 and 234,010
Peak Height D-Glyceraldehyde 3-phosphate (HMDB01112, MCF7/TGL cells treated with CO, replicates CO 1-3): 1,475,183 and 1,160,887 and 1,058,732
Peak Height N-Acetylglutamic acid (HMDB01138, MCF7/TGL cells treated with CO, replicates CO 1-3): 567,078 and 897,146 and 1,371,040
Peak Height 5′-Methylthioadenosine (HMDB01173, MCF7/TGL cells treated with CO, replicates CO 1-3): 269,714 and 419,042 and 1,274,477
Peak Height S-Adenosylmethionine (HMDB01185, MCF7/TGL cells treated with CO, replicates CO 1-3): 9,310,209 and 12,590,700 and 17,427,170
Peak Height Guanosine diphosphate (HMDB01201, MCF7/TGL cells treated with CO, replicates CO 1-3): 35,607 and 34,452 and 43,718
Peak Height Allantoic acid (HMDB01209, MCF7/TGL cells treated with CO, replicates CO 1-3): 44,843 and 53,026 and 96,308
Peak Height 5-Thymidylic acid (HMDB01227, MCF7/TGL cells treated with CO, replicates CO 1-3): 266,456 and 133,281 and 141,715
Peak Height Glucosamine 6-phosphate (HMDB01254, MCF7/TGL cells treated with CO, replicates CO 1-3): 44,392 and 62,516 and 90,486
Peak Height Guanosine triphosphate (HMDB01273, MCF7/TGL cells treated with CO, replicates CO 1-3): 84,003 and 60,453 and 112,154
Peak Height N6,N6,N6-Trimethyl-L-lysine (HMDB01325, MCF7/TGL cells treated with CO, replicates CO 1-3): 4,594,085 and 5,317,512 and 7,697,279
Peak Height ADP (HMDB01341, MCF7/TGL cells treated with CO, replicates CO 1-3): 902,793 and 705,422 and 1,082,377
Peak Height Thymidine 5′-triphosphate (HMDB01342, MCF7/TGL cells treated with CO, replicates CO 1-3): 54,889 and 34,363 and 35,046
Peak Height N-Acetyl-glucosamine 1-phosphate (HMDB01367, MCF7/TGL cells treated with CO, replicates CO 1-3): 464,872 and 467,412 and 595,300
Peak Height Guanosine monophosphate (HMDB01397, MCF7/TGL cells treated with CO, replicates CO 1-3): 73,405 and 58,750 and 80,249
Peak Height Glucose 6-phosphate (HMDB01401, MCF7/TGL cells treated with CO, replicates CO 1-3): 1,799,795 and 2,339,699 and 3,140,759
Peak Height Niacinamide (HMDB01406, MCF7/TGL cells treated with CO, replicates CO 1-3): 1,738,434 and 1,604,153 and 3,615,850
Peak Height Citicoline (HMDB01413, MCF7/TGL cells treated with CO, replicates CO 1-3): 1,054,917 and 1,269,775 and 2,126,892
Peak Height NADH (HMDB01487, MCF7/TGL cells treated with CO, replicates CO 1-3): 81,979 and 73,214 and 61,204
Peak Height Asymmetric dimethylarginine (HMDB01539, MCF7/TGL cells treated with CO, replicates CO 1-3): 2,485,123 and 2,893,325 and 4,095,202
Peak Height CDP (HMDB01546, MCF7/TGL cells treated with CO, replicates CO 1-3): 49,666 and 36,830 and 44,004
Peak Height D-Ribose 5-phosphate (HMDB01548, MCF7/TGL cells treated with CO, replicates CO 1-3): 523,976 and 578,358 and 695,562
Peak Height CDP-Ethanolamine (HMDB01564, MCF7/TGL cells treated with CO, replicates CO 1-3): 229,328 and 262,826 and 313,255
Peak Height Phosphorylcholine (HMDB01565, MCF7/TGL cells treated with CO, replicates CO 1-3): 826,434,500 and 950,902,100 and 1,062,045,000
Peak Height Glucose 1-phosphate (HMDB01586, MCF7/TGL cells treated with CO, replicates CO 1-3): 194,892 and 220,042 and 348,617
Peak Height 2-Hydroxycaproic acid (HMDB01624, MCF7/TGL cells treated with CO, replicates CO 1-3): 663,141 and 926,482 and 905,559
Peak Height DL-O-Phosphoserine (HMDB01721, MCF7/TGL cells treated with CO, replicates CO 1-3): 256,439 and 305,155 and 440,561
Peak Height 2-Ketohexanoic acid (HMDB01864, MCF7/TGL cells treated with CO, replicates CO 1-3): 10,109,740 and 13,290,500 and 25,544,760
Peak Height Acetylcysteine (HMDB01890, MCF7/TGL cells treated with CO, replicates CO 1-3): 309,165 and 445,217 and 662,532
Peak Height Methionine sulfoxide (HMDB02005, MCF7/TGL cells treated with CO, replicates CO 1-3): 1,119,307 and 1,490,306 and 2,521,401
Peak Height Imidazolelactic acid (HMDB02320, MCF7/TGL cells treated with CO, replicates CO 1-3): 128,890 and 215,532 and 355,864
Peak Height Methylimidazoleacetic acid (HMDB02820, MCF7/TGL cells treated with CO, replicates CO 1-3): 2,032,579 and 2,307,084 and 4,227,106
Peak Height Erythritol (HMDB02994, MCF7/TGL cells treated with CO, replicates CO 1-3): 124,085 and 149,580 and 273,411
Peak Height Oxidized glutathione (HMDB03337, MCF7/TGL cells treated with CO, replicates CO 1-3): 1,351,310 and 1,735,245 and 4,066,758
Peak Height L-Dihydroorotic acid (HMDB03349, MCF7/TGL cells treated with CO, replicates CO 1-3): 52,713 and 82,695 and 121,047
Peak Height GDP-glucose (HMDB03351, MCF7/TGL cells treated with CO, replicates CO 1-3): 30,304 and 39,328 and 68,617
Peak Height N-Acetylornithine (HMDB03357, MCF7/TGL cells treated with CO, replicates CO 1-3): 364,451 and 403,207 and 622,448
Peak Height 4-Acetamidobutanoic acid (HMDB03681, MCF7/TGL cells treated with CO, replicates CO 1-3): 550,530 and 718,720 and 878,912
Peak Height N-Acetylasparagine (HMDB06028, MCF7/TGL cells treated with CO, replicates CO 1-3): 279,146 and 204,547 and 192,934
Peak Height N-Acetylglutamine (HMDB06029, MCF7/TGL cells treated with CO, replicates CO 1-3): 233,588 and 221,551 and 457,769
Peak Height ADP-glucose (HMDB06557, MCF7/TGL cells treated with CO, replicates CO 1-3): 51,484 and 47,964 and 81,136
Peak Height 4-Hydroxybenzaldehyde (HMDB11718, MCF7/TGL cells treated with CO, replicates CO 1-3): 1,638,500 and 1,711,975 and 2,780,422
Peak Height N-Acetyl-L-methionine (HMDB11745, MCF7/TGL cells treated with CO, replicates CO 1-3): 1,517,454 and 1,648,819 and 2,302,821
Peak Height D-2,3-Dihydroxypropanoic acid (HMDB31818, MCF7/TGL cells treated with CO, replicates CO 1-3): 2,390,333 and 3,141,171 and 4,932,187
Peak Height 3-hydroxyhexadecanoic acid (HMDB61658, MCF7/TGL cells treated with CO, replicates CO 1-3): 11,142 and 13,344 and 11,314
citric acid and phosphoenolpyruvic acid [1]: did not provide statistically significant results
nine common metabolites (fumaric acid, L-Dihydroorotic acid, D-2-Hydroxyglutaric, malic acid, NAD, GDP-glucose, pyruvic acid, inosinic acid, oxoglutaric acid) [1]: significantly downregulated
pyruvic acid, oxoglutaric acid, malic acid, and fumaric acid (TCA intermediates) [1]: significantly downregulated
succinic acid [1]: significantly downregulated
abundance of metabolites tested (metabolomics profiling) (MCF7/TGL/pQ cells, 250 ppm carbon monoxide for 16 hours): reduced the abundance of the majority of metabolites tested
